# Source: PMC11010885, “Functional Analysis and Tissue-Specific Expression of Calcitonin and CGRP with RAMP-Modulated Receptors CTR and CLR in Chickens” (Animals : an Open Access Journal from MDPI, 2024)
# Experiments:
# Type in all cases: cell-based
# chicken CTR + RAMP1 [1] = experiment: MAPK/ERK pGL4-SRE-luciferase reporter assay, CTR + RAMP1 in CHO cells; conditions: 10^−12 M to 10^−6 M, 6 h, mean ± SEM, n = 3, read-out: EC50, MAPK/ERK signaling pathway
# Experimental: (§1) Chinese hamster ovary (CHO) cells were cultured in Dulbecco’s modified Eagle’s medium (DMEM) supplemented with 10% (vol/vol) fetal bovine serum (HyClone, Logan, UT, USA), 100 U/mL penicillin G and 100 μg/mL streptomycin. The cells were maintained in a 90 mm culture dish (Nunc, Rochester, NY, USA) and incubated at 37 °C with 5% CO2. To investigate the signaling pathways associated with each receptor in CHO cells, three different reporter systems (pGL3-CRE-luciferase, pGL4-SRE-luciferase, and pGL3-NFAT-RE-luciferase) were utilized to monitor intracellular cAMP/PKA and MAPK/ERK signaling pathways and calcium mobilization of the activated receptors, respectively.
# (§2) Prior to the transfection procedure, the cells were initially cultured in 6-well plates (Nunc, Rochester, NY, USA), maintaining a seeding density of approximately 300,000 cells per well. Upon achieving approximately 70% confluence, the cells underwent a co-transfection process. […] The fluorescence activity of the luciferase in each treatment group was measured using a multimode microplate reader (TriStar LB941, Berthold Technologies, Bad Wildbad, Germany). Finally, the fluorescence activity of each treatment group was expressed as a relative increase ratio compared to the control group.
# chicken CLR + RAMP3 [2] = experiment: MAPK/ERK pGL4-SRE-luciferase reporter assay, CLR + RAMP3 in CHO cells; conditions: 10^−12 M to 10^−6 M, 6 h, mean ± SEM, n = 3, read-out: EC50, MAPK/ERK signaling pathway
# Experimental: as §1, §2
# chicken CLR [3] = experiment: cAMP/PKA pGL3-CRE-luciferase reporter assay, CLR + pcDNA in CHO cells
# Experimental: as §1
# (§3) Prior to the transfection procedure, the cells were initially cultured in 6-well plates (Nunc, Rochester, NY, USA), maintaining a seeding density of approximately 300,000 cells per well. Upon achieving approximately 70% confluence, the cells underwent a co-transfection process. This procedure entailed the introduction of 700 ng of various luciferase reporter constructs (namely, pGL3-CRE-luciferase, pGL4-SRE-luciferase, or pGL3-NFAT-RE-luciferase) combined with 200 ng of a specific receptor plasmid (CTR or CLR) and 1000 ng of either RAMP1, RAMP2, RAMP3 expression plasmids, or alternatively, the empty pcDNA3.1 (+) vector. A volume of 5.7 μL of PEI MAX was used in 200 μL of buffer following the manufacturer’s protocol. After 24 h of incubation, the transfected CHO cells were subcultured in 96-well plates and passaged for an additional 24 h before peptide treatment. Then, the medium from the 96-well plates was removed, and the cells were treated with chicken CT/CGRP-containing medium (or untreated medium as a control) at concentrations ranging from 10^−12 M to 10^−6 M for 6 h. Subsequently, the cells were harvested for luciferase assays by lysing them in 1 × passive lysis buffer. To measure the luciferase activity of the cell lysate, 40 μL of luciferase assay reagent (Promega, Madison, WI, USA) was mixed with the cell lysate following the manufacturer’s instructions. The fluorescence activity of the luciferase in each treatment group was measured using a multimode microplate reader (TriStar LB941, Berthold Technologies, Bad Wildbad, Germany). Finally, the fluorescence activity of each treatment group was expressed as a relative increase ratio compared to the control group.
# chicken CLR + RAMP2 [4] = experiment: Calcium pGL3-NFAT-RE-luciferase reporter assay, CLR + RAMP2 in CHO cells
# Experimental: as §1
# as §3, with “Subsequently, the cells were harvested for luciferase assays by lysing them in 1 × passive lysis buffer. To measure the luciferase activity of the cell lysate, 40 μL of luciferase assay reagent (Promega, Madison, WI, USA) was mixed with the cell lysate following the manufacturer’s instructions.” left out
# chicken CLR + RAMP3 [5] = experiment: Calcium pGL3-NFAT-RE-luciferase reporter assay, CLR + RAMP3 in CHO cells; conditions: 10^−12 M to 10^−6 M, 6 h, mean ± SEM, n = 3, read-out: EC50, calcium signaling pathway
# Experimental: as §1, §2
# chicken CTR + RAMP1 [6] = experiment: cAMP/PKA pGL3-CRE-luciferase reporter assay, CTR + RAMP1 in CHO cells; conditions: 10^−12 M to 10^−6 M, 6 h, mean ± SEM, n = 3, read-out: EC50, cAMP/PKA signaling pathway
# Experimental: as §1, §2
# chicken CTR + RAMP3 [7] = experiment: Calcium pGL3-NFAT-RE-luciferase reporter assay, CTR + RAMP3 in CHO cells; conditions: 10^−12 M to 10^−6 M, 6 h, mean ± SEM, n = 3, read-out: EC50, calcium signaling pathway
# Experimental: as §1, §2
# chicken CLR [8] = experiment: Western blot CREB phosphorylation, CLR in CHO cells; conditions: 10 nM, 10 min, n = 3
# Experimental: To assess whether the activation of chicken CTR and CLR, along with the presence of RAMPs, can augment the phosphorylation levels of cAMP response element-binding protein (CREB), 200 ng of CTR or CLR expression plasmids were combined with 1000 ng of chicken RAMPs or an empty pcDNA3.1 (+) vector in a 100 μL buffer. The resulting mixture was then transfected into CHO cells in a 12-well plate (Nunc, Rochester, NY, USA) using 3.6 μL of PEI MAX transfection reagent. After a 24 h incubation period, the cells were exposed to chicken CT (10 nM) or CGRP (10 nM) for 10 min. Subsequently, the culture medium was removed, and the cells were lysed according to the manufacturer’s instructions. Western blot analysis was performed to quantify the levels of CREB and phosphorylated CREB (p-CREB). The optical densities were analyzed and normalized using the software, ImageJ 1.52a (National Institutes of Health, Bethesda, MD, USA). The relative expression of p-CREB/CREB was determined by calculating the ratio of the optical density to that of the control without peptide treatment (0 min).
# chicken CTR + RAMP2 = experiment: Calcium pGL3-NFAT-RE-luciferase reporter assay, CTR + RAMP2 in CHO cells
# Experimental: as §1
# as §3, with “Subsequently, the cells were harvested for luciferase assays by lysing them in 1 × passive lysis buffer. To measure the luciferase activity of the cell lysate, 40 μL of luciferase assay reagent (Promega, Madison, WI, USA) was mixed with the cell lysate following the manufacturer’s instructions.” left out
# chicken CTR = experiment: cAMP/PKA pGL3-CRE-luciferase reporter assay, CTR + pcDNA in CHO cells
# Experimental: as §1, §3
# chicken CTR + RAMP3 [9] = experiment: cAMP/PKA pGL3-CRE-luciferase reporter assay, CTR + RAMP3 in CHO cells; conditions: 10^−12 M to 10^−6 M, 6 h, mean ± SEM, n = 3, read-out: EC50, cAMP/PKA signaling pathway
# Experimental: as §1, §2
# chicken CLR + RAMP2 [10] = experiment: MAPK/ERK pGL4-SRE-luciferase reporter assay, CLR + RAMP2 in CHO cells; conditions: 10^−12 M to 10^−6 M, 6 h, mean ± SEM, n = 3, read-out: EC50, MAPK/ERK signaling pathway
# Experimental: as §1, §2
# chicken CLR [11] = experiment: MAPK/ERK pGL4-SRE-luciferase reporter assay, CLR + pcDNA in CHO cells; conditions: 10^−12 M to 10^−6 M, 6 h, mean ± SEM, n = 3, read-out: EC50, MAPK/ERK signaling pathway
# Experimental: as §1, §2
substance,measurement,setting,value
calcitonin [CT],EC50,chicken CTR + RAMP1 [1],1380 ± 240 pM
same,EC50,chicken CLR + RAMP3 [2],1000 ± 450 pM
same,EC50,"chicken CLR [3]; CLR + pcDNA, CHO cells, pGL3-CRE-luciferase, 10^−12 M to 10^−6 M, 6 h, mean ± SEM, n = 3, read-out: EC50, cAMP/PKA signaling pathway",750 ± 210 pM
same,"activation (cAMP production), in words",chicken CLR [3]; independent CLR,strongly activates
same,EC50,"chicken CLR + RAMP2 [4]; CLR + RAMP2, CHO cells, pGL3-NFAT-RE-luciferase, 10^−12 M to 10^−6 M, 6 h, mean ± SEM, n = 3, read-out: EC50, calcium signaling pathway",1520 ± 1320 pM
same,"elevation in luciferase activity, calcium signaling","chicken CLR + RAMP2 [4]; CLR + RAMP2, pGL3-NFAT-RE-luciferase, CHO cells",modest elevation in luciferase activity
same,EC50,chicken CLR + RAMP3 [5],32300 ± 30300 pM
same,EC50,chicken CTR + RAMP1 [6],770 ± 70 pM
same,EC50,chicken CTR + RAMP3 [7],> 100000 pM
same,"CREB phosphorylation (p-CREB/CREB vs. control, 0 min)",chicken CLR [8],significantly enhanced the CREB phosphorylation
same,EC50,"chicken CTR + RAMP2; CTR + RAMP2, CHO cells, pGL3-NFAT-RE-luciferase, 10^−12 M to 10^−6 M, 6 h, mean ± SEM, n = 3, read-out: EC50, calcium signaling pathway",2500 ± 1810 pM
same,"elevation in luciferase activity, calcium signaling","chicken CTR + RAMP2; CTR + RAMP2, pGL3-NFAT-RE-luciferase, CHO cells",modest elevation in luciferase activity
same,EC50,"chicken CTR; CTR + pcDNA, CHO cells, pGL3-CRE-luciferase, 10^−12 M to 10^−6 M, 6 h, mean ± SEM, n = 3, read-out: EC50, cAMP/PKA signaling pathway",150 ± 40 pM
same,"activation (cAMP production), in words",chicken CTR; independent CTR,strongly activates
same,EC50,chicken CTR + RAMP3 [9],440 ± 100 pM
same,EC50,chicken CLR + RAMP2 [10],380 ± 90 pM
same,EC50,chicken CLR [11],300 ± 120 pM
